Numbered stars: 1 amine (or outer) side, 2 acyl side, 3 side chain; on linkers, the order of the positions; unused ones are H or OH. Side chains are listed from the residue outwards. Peptide text beside a SMILES is read from it. * marks the point of attachment. C18 diacid = O=C(O)CCCCCCCCCCCCCCCCC(=O)*; C16 diacid = O=C(O)CCCCCCCCCCCCCCC(=O)*; γGlu = O=C(O)[C@H](CCC(=O)[*:2])N[*:1]; AEEA = NCCOCCOCC(=O)O
Legend:
glucagon receptor = target: T1, glucagon receptor (Homo sapiens, UniProt P47871); assay: Assay (I) Glucagon activity (cAMP biosensor, FLIPR); assay type: cell-based
T1 construct: expressed in transfected cells

[1] = Assay (X) Chemical stability assessment by RP-UPLC; assay type: physicochemical; conditions: pH 8.15, 14 days at 37° C. vs 5° C., 333 μM

T1 sequence (P47871 26-477): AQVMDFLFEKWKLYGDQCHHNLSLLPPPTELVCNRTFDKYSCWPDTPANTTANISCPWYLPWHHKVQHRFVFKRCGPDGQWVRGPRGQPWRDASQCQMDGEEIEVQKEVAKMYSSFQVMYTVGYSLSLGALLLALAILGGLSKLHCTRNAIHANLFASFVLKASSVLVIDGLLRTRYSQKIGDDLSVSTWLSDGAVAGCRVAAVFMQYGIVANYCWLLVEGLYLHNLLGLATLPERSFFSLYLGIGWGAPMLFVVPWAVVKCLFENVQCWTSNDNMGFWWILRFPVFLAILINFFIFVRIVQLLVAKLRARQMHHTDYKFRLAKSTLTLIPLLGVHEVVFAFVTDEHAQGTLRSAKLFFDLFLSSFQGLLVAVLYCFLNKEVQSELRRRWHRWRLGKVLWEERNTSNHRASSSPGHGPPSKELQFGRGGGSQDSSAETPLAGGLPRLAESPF

SMILES: CC(C)C[C@H](NC(=O)[C@H](Cc1ccc(O)cc1)NC(=O)[C@H](CCCNC(=N)N)NC(=O)[C@H](CO)NC(=O)[C@H](Cc1ccc(O)cc1)NC(=O)[C@H](CC(=O)O)NC(=O)[C@H](CO)NC(=O)[C@@H](NC(=O)[C@H](Cc1ccccc1)NC(=O)[C@@H](NC(=O)CNC(=O)[C@H](CCC(N)=O)NC(=O)[C@H](CO)NC(=O)[C@@H](N)Cc1c[nH]cn1)[C@@H](C)O)[C@@H](C)O)C(=O)N[C@@H](CC(=O)O)C(=O)N[C@@H](CCC(=O)O)C(=O)N[C@@H](CCCNC(=N)N)C(=O)N[C@@H](CCCNC(=N)N)C(=O)N[C@@H](C)C(=O)N[C@@H](CCC(N)=O)C(=O)N[C@@H](CC(=O)O)C(=O)N[C@@H](Cc1ccccc1)C(=O)N[C@H](C(=O)N[C@@H](CCCCNC(=O)CC[C@H](NC(=O)CC[C@H](NC(=O)COCCOCCNC(=O)COCCOCCNC(=O)CC[C@H](NC(=O)CCCCCCCCCCCCCCC(=O)O)C(=O)O)C(=O)O)C(=O)O)C(=O)N[C@@H](Cc1c[nH]c2ccccc12)C(=O)N[C@@H](CC(C)C)C(=O)N[C@@H](CC(C)C)C(=O)N[C@@H](CO)C(=O)N[C@H](C(=O)O)[C@@H](C)O)C(C)C [Example 94, N^ε24-[(4S)-4-carboxy-4-[[(4S)-4-carboxy-4-[[2-[2-[2-[[2-[2-[2-[[(4S)-4-carboxy-4-(15-carboxypentadecanoylamino)butanoyl]amino]ethoxy]ethoxy]acetyl]amino]ethoxy]ethoxy]acetyl]amino]butanoyl]amino]butanoyl]-[Arg12,Glu16,Lys24,Leu27,Ser28]-Glucagon] (H-HSQGTFTSDYSRYLDERRAQDFVK([γGlu-γGlu-AEEA-AEEA-γGlu-C16 diacid])WLLST-OH; N-terminus and C-terminus assumed)
- EC50 (glucagon receptor): 29 pM
- Chemical stability [Purity loss/14 days 37 C.] [1]: 8.8%

SMILES: CC(C)C[C@H](NC(=O)[C@H](Cc1ccc(O)cc1)NC(=O)[C@H](CCCCN)NC(=O)[C@H](CO)NC(=O)[C@H](Cc1ccc(O)cc1)NC(=O)[C@H](CC(=O)O)NC(=O)[C@H](CO)NC(=O)[C@@H](NC(=O)[C@H](Cc1ccccc1)NC(=O)[C@@H](NC(=O)CNC(=O)[C@H](CCC(N)=O)NC(=O)[C@H](CO)NC(=O)[C@@H](N)Cc1c[nH]cn1)[C@@H](C)O)[C@@H](C)O)C(=O)N[C@@H](CCC(=O)O)C(=O)N[C@@H](CO)C(=O)N[C@@H](CCCNC(=N)N)C(=O)N[C@@H](CCCNC(=N)N)C(=O)N[C@@H](C)C(=O)N[C@@H](CCC(N)=O)C(=O)N[C@@H](CCC(=O)O)C(=O)N[C@@H](Cc1ccccc1)C(=O)N[C@H](C(=O)N[C@@H](CCCCNC(=O)CC[C@H](NC(=O)CC[C@H](NC(=O)CC[C@H](NC(=O)CC[C@H](NC(=O)CCCCCCCCCCCCCCCCC(=O)O)C(=O)O)C(=O)O)C(=O)O)C(=O)O)C(=O)N[C@@H](Cc1c[nH]c2ccccc12)C(=O)N[C@@H](CC(C)C)C(=O)N[C@@H](CC(C)C)C(=O)N[C@@H](CO)C(=O)N[C@H](C(=O)O)[C@@H](C)O)C(C)C [Example 49, N^ε24-[(4S)-4-carboxy-4-[[(4S)-4-carboxy-4-[[(4S)-4-carboxy-4-[[(4S)-4-carboxy-4-(17-carboxyheptadecanoylamino)butanoyl]amino]butanoyl]amino]butanoyl]amino]butanoyl]-[Glu15,Glu21,Lys24,Leu27,Ser28]-Glucagon] (H-HSQGTFTSDYSKYLESRRAQEFVK([γGlu-γGlu-γGlu-γGlu-C18 diacid])WLLST-OH)
- EC50 (glucagon receptor): 169 pM
- Chemical stability [Purity loss/14 days 37 C.] [1]: 6.8%

Reference: patent US9486506B2 (Novo Nordisk A/S, priority 2011, dated 2016)
